Patent US7494991B2, “Rifamycin analogs and uses thereof” (ActivBiotics Pharma, LLC, priority 2003, dated 2009)
≈ marks a conversion by molar mass, not a printed value.

Assays:
H. flu = assay: MIC assay, H. flu; format: cell-based, H. influenza
S. aureus = assay: MIC assay, S. aureus; format: cell-based
E. coli = assay: MIC assay, E. coli; format: cell-based
E. faecalis = assay: MIC assay, E. faecalis; format: cell-based
S. pneumo. = assay: MIC assay, S. pneumo.; format: cell-based, S. pneumoniae
C. trachomatis = assay: MIC assay, C. trachomatis; format: cell-based

CO[C@H]1/C=C/O[C@@]2(C)Oc3c(C)c(O)c4c(=O)c(c5oc6c7c(cc(O)c6nc-5c4c3C2=O)N(C)CCN7C)NC(=O)/C(C)=C\C=C\[C@H](C)[C@H](O)[C@@H](C)[C@@H](O)[C@@H](C)[C@H](O)[C@@H]1C [Compound 2]
MIC (μg/mL) H. flu (H. flu): 2 µg/mL (≈ 2370 nM) | MIC (μg/mL) S. aureus (S. aureus): 0.5 µg/mL (≈ 593 nM) | MIC (μg/mL) E. coli (E. coli): 8 µg/mL (≈ 9490 nM) | MIC (μg/mL) E. faecalis (E. faecalis): 1 µg/mL (≈ 1190 nM) | MIC (μg/mL) S. pneumo. (S. pneumo.): 0.06 µg/mL (≈ 71.2 nM) | MIC (μg/mL) C. trachomatis (C. trachomatis): 0.001 µg/mL (≈ 1.19 nM)

CO[C@H]1/C=C/O[C@@]2(C)Oc3c(C)c(O)c4c(=O)c(c5oc6c7c(cc(O)c6nc-5c4c3C2=O)N(C)CCCN7C)NC(=O)/C(C)=C\C=C\[C@H](C)[C@H](O)[C@@H](C)[C@@H](O)[C@@H](C)[C@H](O)[C@@H]1C [Compound 4]
MIC (μg/mL) H. flu (H. flu): 2 µg/mL (≈ 2330 nM) | MIC (μg/mL) S. aureus (S. aureus): 0.12 µg/mL (≈ 140 nM) | MIC (μg/mL) E. coli (E. coli): >8 µg/mL | MIC (μg/mL) E. faecalis (E. faecalis): 1 µg/mL (≈ 1170 nM) | MIC (μg/mL) S. pneumo. (S. pneumo.): 0.00012 µg/mL (≈ 0.14 nM) | MIC (μg/mL) C. trachomatis (C. trachomatis): 0.001 µg/mL (≈ 1.17 nM)

CO[C@H]1/C=C/O[C@@]2(C)Oc3c(C)c(O)c4c(=O)c(c5oc6c7c(cc(O)c6nc-5c4c3C2=O)N(C)CCN7C)NC(=O)/C(C)=C\C=C\[C@H](C)[C@H](O)[C@@H](C)[C@@H](O)[C@@H](C)[C@H](OC(C)=O)[C@@H]1C [Compound 1]
MIC (μg/mL) H. flu (H. flu): 1 µg/mL (≈ 1130 nM) | MIC (μg/mL) S. aureus (S. aureus): 0.008 µg/mL (≈ 9.04 nM) | MIC (μg/mL) E. coli (E. coli): 8 µg/mL (≈ 9040 nM) | MIC (μg/mL) E. faecalis (E. faecalis): 1 µg/mL (≈ 1130 nM) | MIC (μg/mL) S. pneumo. (S. pneumo.): 0.00012 µg/mL (≈ 0.136 nM) | MIC (μg/mL) C. trachomatis (C. trachomatis): 6.4e-05 µg/mL (≈ 0.0723 nM)

CO[C@H]1/C=C/O[C@@]2(C)Oc3c(C)c(O)c4c(=O)c(c5oc6c7c(cc(O)c6nc-5c4c3C2=O)N(C)CCCN7C)NC(=O)/C(C)=C\C=C\[C@H](C)[C@H](O)[C@@H](C)[C@@H](O)[C@@H](C)[C@H](OC(C)=O)[C@@H]1C [Compound 3]
MIC (μg/mL) H. flu (H. flu): 2 µg/mL (≈ 2220 nM) | MIC (μg/mL) S. aureus (S. aureus): 0.06 µg/mL (≈ 66.7 nM) | MIC (μg/mL) E. coli (E. coli): >8 µg/mL | MIC (μg/mL) E. faecalis (E. faecalis): 4 µg/mL (≈ 4450 nM) | MIC (μg/mL) S. pneumo. (S. pneumo.): 0.008 µg/mL (≈ 8.9 nM) | MIC (μg/mL) C. trachomatis (C. trachomatis): 6.4e-05 µg/mL (≈ 0.0712 nM)
